Data published in patent US12617769B2, “Chemical compound as thyroid hormone beta receptor agonist and use thereof” (SUNSHINE LAKE PHARMA CO., LTD., priority 2019, dated 2026).

What was measured:
TRα = molecular target: T1, TRα (Homo sapiens, UniProt P10827); test: In vitro binding activity, LanthaScreen TR-FRET Thyroid Receptor alfa Coactivator Assay; conditions: TRα-LBD
T1 construct: Then 5 μL of 4×TRα-LBD or TRP-LBD; purchased Invitrogen PV4687
Description: (§1) 2. Detection of TRα or TRβ Binding Activity In Vitro of the Compound of the Present Invention
(§2) • LanthaScreen TR-FRET Thyroid Receptor beta Coactivator Assay kit was purchased from Invitrogen, Cat. No. PV4686; • LanthaScreen TR-FRET Thyroid Receptor alfa Coactivator Assay kit was purchased from Invitrogen, Cat. No. PV4687. Test Method:
(§3) This method was tested using LanthaScreen TR-FRET Thyroid Receptor beta/alfa Coactivator Assay kit. The test compound was dissolved in DMSO and diluted three-fold to obtain a total of 10 concentrations, then the compounds were diluted into solutions containing 2% DMSO with TR-FRET Coregulator Buffer C in the kit. 10 μL of the compounds containing 2% DMSO were taken to a 384-well plate. Then 5 μL of 4×TRα-LBD or TRP-LBD and 5 μL of a mixture containing 0.4 μM fluorescein-SRC2-2 and 8 nM Tb anti-GST antibody were added to each well. After mixing well, the compounds were incubated at room temperature in the dark for 1 h. After 1 h, the fluorescence value (RFU) was read at 520 nm and 495 nm using PHERAstar FSX microplate reader from BMG LABTECH. The emission signal at 520 nm was divided by the emission signal at 495 nm to calculate the TR-FRET ratio.

TRβ = molecular target: T2, TRβ (Homo sapiens, UniProt P10828); test: In vitro binding activity, LanthaScreen TR-FRET Thyroid Receptor beta Coactivator Assay; conditions: TRβ-LBD
T2 construct: Then 5 μL of 4×TRα-LBD or TRP-LBD; purchased Invitrogen PV4686
T2 sequence (P10828 217-461 limits assumed): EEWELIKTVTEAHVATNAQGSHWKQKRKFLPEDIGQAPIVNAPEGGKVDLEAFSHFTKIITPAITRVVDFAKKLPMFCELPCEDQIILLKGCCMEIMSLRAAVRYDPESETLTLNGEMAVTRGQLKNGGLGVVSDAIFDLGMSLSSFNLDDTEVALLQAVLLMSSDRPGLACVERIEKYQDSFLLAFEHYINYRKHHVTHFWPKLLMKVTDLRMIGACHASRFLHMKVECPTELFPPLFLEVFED
Description: as §1, §2, §3

T1 sequence (P10827 163-410 isoform P10827-2 limits assumed, other chains not shown): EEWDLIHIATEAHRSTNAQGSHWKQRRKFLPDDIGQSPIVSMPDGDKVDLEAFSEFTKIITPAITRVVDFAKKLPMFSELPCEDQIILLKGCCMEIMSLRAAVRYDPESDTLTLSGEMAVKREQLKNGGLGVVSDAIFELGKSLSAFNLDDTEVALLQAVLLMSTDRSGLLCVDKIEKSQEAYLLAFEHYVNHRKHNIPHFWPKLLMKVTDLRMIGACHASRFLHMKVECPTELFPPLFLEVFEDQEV

| EC50 (TRα) | EC50 (TRβ) | SMILES |
| --- | --- | --- |
| 3.03 µM | 60 nM | N#Cc1nn(-c2cc(Cl)c(Oc3ccc(=O)n(Cc4ccccc4)c3)c(Cl)c2)c(=O)[nH]c1=O [Example 1, 2-[4-[(1-benzyl-6-oxo-1,6-dihydropyridin-3-yl)oxy]-3,5-dichlorophenyl]-3,5-dioxo-1,2,4-triazine-6-carbonitrile] |
| > 100 µM | > 10000 nM | N#Cc1nn(-c2cc(Cl)c(Oc3ccc(=O)n(Cc4ccccc4)n3)c(Cl)c2)c(=O)[nH]c1=O [Example 2, 2-[4-(1-benzyl-6-oxo-1,6-dihydropyridazin-3-yl)oxy-3,5-dichlorophenyl]-3,5-dioxo-1,2,4-triazine-6-carbonitrile] |
| > 100 µM | 500 nM | CC(C)n1cc(Oc2c(Cl)cc(-n3nc(C#N)c(=O)[nH]c3=O)cc2Cl)ccc1=O [Example 4, 2-[3,5-dichloro-4-[(1-isopropyl-6-oxo-1,6-dihydropyridin-3-yl)oxy]phenyl]-3,5-dioxo-1,2,4-triazine-6-carbonitrile] |
| > 100 µM | > 10000 nM | N#Cc1nn(-c2cc(Cl)c(Oc3ccc(=O)n(-c4ccc(F)cc4)n3)c(Cl)c2)c(=O)[nH]c1=O [Example 8, 2-[3,5-dichloro-4-[1-(4-fluorophenyl)-6-oxo-1,6-dihydropyridazin-3-yl]oxy-phenyl]-3,5-dioxo-1,2,4-triazine-6-carbonitrile] |
| > 100 µM | > 10000 nM | CC(c1ccccc1)n1nc(Oc2c(Cl)cc(-n3nc(C#N)c(=O)[nH]c3=O)cc2Cl)ccc1=O (stereo not drawn) [Example 9, 2-[3,5-dichloro-4-[[6-oxo-1-(1-phenethyl)-1,6-dihydropyridazin-3-yl]oxyl]phenyl]-3,5-dioxo-1,2,4-triazine-6-carbonitrile] |
| > 100 µM | > 10000 nM | N#Cc1nn(-c2cc(Cl)c(Oc3cnc(=O)n(Cc4ccccc4)c3)c(Cl)c2)c(=O)[nH]c1=O [Example 10, 2-[4-(1-benzyl-2-oxo-1,2-dihydropyrimidin-5-yl)oxy-3,5-dichlorophenyl]-3,5-dioxo-1,2,4-triazine-6-carbonitrile] |
| > 100 µM | > 10000 nM | CCOC(=O)Cn1nc(Oc2c(Cl)cc(-n3nc(C#N)c(=O)[nH]c3=O)cc2Cl)ccc1=O [Example 19, Ethyl 2-[3-[2,6-dichloro-4-(6-cyano-3,5-dioxo-1,2,4-triazin-2-yl)phenoxy]-6-oxy-pyridazine-1(6H)-yl] acetate] |
| > 100 µM | 690 nM | COc1cccc(Cn2cc(Oc3c(Cl)cc(-n4nc(C#N)c(=O)[nH]c4=O)cc3Cl)ccc2=O)c1 [Example 22, 2-[3,5-dichloro-4-[[1-[(3-methoxyphenyl)methyl]-6-oxopyridin-3-yl]oxy]phenyl]-3,5-dioxo-1,2,4-triazine-6-carbonitrile] |
| 3 µM | 60 nM | Cc1ccc(Cn2cc(Oc3c(Cl)cc(-n4nc(C#N)c(=O)[nH]c4=O)cc3Cl)ccc2=O)cc1 [Example 23, 2-[3,5-dichloro-4-[[1-(4-methylbenzyl)-6-oxo-1,6-dihydropyridin-3-yl]oxy]phenyl]-3,5-dioxo-1,2,4-triazine-6-carbonitrile] |

Further lines, the molecule ahead of its results:

| SMILES | EC50 (TRα) | EC50 (TRβ) |
| --- | --- | --- |
| N#Cc1nn(-c2cc(Cl)c(Oc3ccc(=O)n(Cc4ccc(F)c(F)c4)c3)c(Cl)c2)c(=O)[nH]c1=O [Example 11, 2-[3,5-dichloro-4-[[1-(3,4-difluorobenzyl)-6-oxo-1,6-dihydropyridin-3-yl]oxy]phenyl]-3,5-dioxo-1,2,4-triazine-6-carbonitrile] | 0.67 µM | 22 nM |
| N#Cc1nn(-c2cc(Cl)c(Oc3ccc(=O)n(Cc4ccc(OC(F)(F)F)cc4)c3)c(Cl)c2)c(=O)[nH]c1=O [Example 12, 2-[3,5-dichloro-4[[6-oxo-1-[4-(trifluoromethoxy)benzyl]-1,6-dihydropyridin-3-yl]oxy]phenyl]-3,5-dioxo-1,2,4-triazine-6-carbonitrile] | > 100 µM | 1340 nM |
| N#Cc1nn(-c2cc(Cl)c(Oc3ccc(=O)n(Cc4ccc(F)cc4)c3)c(Cl)c2)c(=O)[nH]c1=O [Example 13, 2-[3,5-dichloro-4-[[1-(4-fluorobenzyl)-6-oxo-1,6-dihydropyridin-3-yl]oxy]phenyl]-3,5-dioxo-1,2,4-triazine-6-carbonitrile] | 0.6 µM | 20 nM |
| N#Cc1nn(-c2cc(Cl)c(Oc3ccc(=O)n(Cc4cccc(C(F)(F)F)c4)c3)c(Cl)c2)c(=O)[nH]c1=O [Example 14, 2-[3,5-dichloro-4-[[6-oxo-1-[3-(trifluoromethyl)benzyl]-1,6-dihydropyridin-3-yl]oxy]phenyl]-3,5-dioxo-1,2,4-triazine-6-carbonitrile] | 5.74 µM | 350 nM |
| CCOC(=O)Cn1cc(Oc2c(Cl)cc(-n3nc(C#N)c(=O)[nH]c3=O)cc2Cl)ccc1=O [Example 17, Ethyl 2-[5-[2,6-dichloro-4-(6-cyano-3,5-dioxo-1,2,4-triazin-2-yl)phenoxy]-2-oxy-pyridine-1(2H)-yl] acetate] | 15.4 µM | 350 nM |
| COCCn1cc(Oc2c(Cl)cc(-n3nc(C#N)c(=O)[nH]c3=O)cc2Cl)ccc1=O [Example 18, 2-[3,5-dichloro-4-[[1-(2-methoxyethyl)-6-oxo-1,6-dihydropyridin-3-yl]oxy]phenyl]-3,5-dioxo-1,2,4-triazine-6-carbonitrile] | 1.35 µM | 86 nM |
| N#Cc1nn(-c2cc(Cl)c(Oc3cnc(=O)n(Cc4ccc(F)cc4)c3)c(Cl)c2)c(=O)[nH]c1=O [Example 20, 2-[3,5-dichloro-4-[1-(4-fluorobenzyl)-2-oxo-1,2-dihydropyrimidin-5-yl]oxy-phenyl]-3,5-dioxo-1,2,4-triazine-6-carbonitrile] | > 100 µM | 7370 nM |
| CCOC(=O)C(C)n1cc(Oc2c(Cl)cc(-n3nc(C#N)c(=O)[nH]c3=O)cc2Cl)ccc1=O (stereo not drawn) [Example 24, Ethyl 2-(5-(2,6-dichloro-4-(6-cyano-3,5-dioxo-1,2,4-triazin-2-yl)phenoxy)-2-oxypyridine-1(2H)-yl)propionate] | 0.57 µM | 20 nM |
| N#Cc1nn(-c2cc(Cl)c(Oc3ccc(=O)n(CC4CCOCC4)c3)c(Cl)c2)c(=O)[nH]c1=O [Example 25, 2-[3,5-dichloro-4-[[6-oxo-1-((tetrahydropyran-4-yl)methyl)-1,6-dihydropyridin-3-yl]oxy]phenyl]-3,5-dioxo-1,2,4-triazine-6-carbonitrile] | 6.66 µM | 140 nM |
| CCOC(=O)c1nn(-c2cc(Cl)c(Oc3ccc(=O)n(Cc4ccccc4)c3)c(Cl)c2)c(=O)[nH]c1=O [Example 27, Ethyl 2-(4-((1-benzyl-6-oxo-1,6-dihydropyridin-3-yl)oxy)-3,5-dichlorophenyl)-3,5-dioxo-1,2,4-triazine-6-carboxylate] | > 100 µM | 1490 nM |
| NC(=O)c1nn(-c2cc(Cl)c(Oc3ccc(=O)n(Cc4ccccc4)c3)c(Cl)c2)c(=O)[nH]c1=O [Example 30, 2-(4-((1-benzyl-6-oxo-1,6-dihydropyridin-3-yl)oxy)-3,5-dichlorophenyl)-3,5-dioxo-2,3,4,5-tetrahydro-1,2,4-triazine-6-carboxamide] | > 100 µM | 3760 nM |
| COc1ccc(Cn2cc(Oc3c(Cl)cc(-n4nc(C#N)c(=O)[nH]c4=O)cc3Cl)ccc2=O)cc1 [Example 31, 2-(3,5-dichloro-4-((1-(4-methoxybenzyl)-6-oxo-1,6-dihydropyridin-3-yl)oxy)phenyl)-3,5-dioxo-2,3,4,5-tetrahydro-1,2,4-triazine-6-carbonitrile] | 4.4 µM | 94 nM |
